Measured values taken from ChEMBL document CHEMBL6134873, “Identification of Novel Cyclobutane-Based Derivatives as Potent Acetyl-CoA Carboxylase Allosteric Inhibitors for Nonalcoholic Steatohepatitis Drug Discovery” (J Med Chem, 2025).

Tests used:
in vivo [1] = conditions: Sprague-Dawley, rat, liver, po, 3 mg/kg
Description: Drug concentration in liver of Sprague-Dawley rat at 3 mg/kg, po measured after 4 hrs by LC-MS/MS analysis

[2] = Protein binding in dog plasma; assay type: ADME, cell-free, Canis lupus familiaris; conditions: read-out: PPB (converted)
Cytochrome P450 2C9 = Cytochrome P450 2C9 (Homo sapiens, UniProt P11712); assay: Inhibition of CYP2C9 (unknown origin); assay type: ADME
Sequence of Cytochrome P450 2C9 (P11712 whole entry): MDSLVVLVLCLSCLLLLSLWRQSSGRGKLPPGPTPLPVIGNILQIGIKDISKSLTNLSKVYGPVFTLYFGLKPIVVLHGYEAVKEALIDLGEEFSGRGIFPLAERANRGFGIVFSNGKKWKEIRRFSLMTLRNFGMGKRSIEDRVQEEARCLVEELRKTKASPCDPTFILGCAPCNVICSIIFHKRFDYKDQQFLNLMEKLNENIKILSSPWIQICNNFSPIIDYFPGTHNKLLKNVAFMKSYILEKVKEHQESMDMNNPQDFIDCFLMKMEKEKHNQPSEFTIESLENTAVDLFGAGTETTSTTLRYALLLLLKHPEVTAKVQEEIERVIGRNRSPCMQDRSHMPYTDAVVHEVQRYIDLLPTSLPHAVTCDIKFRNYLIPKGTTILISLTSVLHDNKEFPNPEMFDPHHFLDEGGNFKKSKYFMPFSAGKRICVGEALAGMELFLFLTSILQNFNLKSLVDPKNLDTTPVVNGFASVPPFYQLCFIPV

Acetyl-CoA carboxylase 1 = Acetyl-CoA carboxylase 1 (Homo sapiens, UniProt Q13085)
Description: Inhibition of recombinant human ACC1 using acetyl-Co A as substrate incubated for 60 mins in presence of ATP by ADP-Glo assay

[3] = Stability of compound assessed as compound isomerization by measuring retention time; assay type: physicochemical
in vivo [4] = conditions: Sprague-Dawley, rat, plasma, po, 3 mg/kg
Description: Drug concentration in plasma of Sprague-Dawley rat at 3 mg/kg, po measured after 1 hr by LC-MS/MS analysis

[5] = Suppression of Col1A1 mRNA expression in TGF-beta1-treated human LX2 cells incubated for 24 hrs by qPCR analysis; assay type: functional, cell-based; conditions: LX-2, 24 h
[6] = Intrinsic clearance in monkey liver microsomes; assay type: ADME, Macaca mulatta, Microsome; conditions: rhesus monkey, read-out: CLH
Cytochrome P450 2C19 = Cytochrome P450 2C19 (Homo sapiens, UniProt P33261); assay: Inhibition of CYP2C19 (unknown origin); assay type: ADME
Sequence of Cytochrome P450 2C19 (P33261 whole entry): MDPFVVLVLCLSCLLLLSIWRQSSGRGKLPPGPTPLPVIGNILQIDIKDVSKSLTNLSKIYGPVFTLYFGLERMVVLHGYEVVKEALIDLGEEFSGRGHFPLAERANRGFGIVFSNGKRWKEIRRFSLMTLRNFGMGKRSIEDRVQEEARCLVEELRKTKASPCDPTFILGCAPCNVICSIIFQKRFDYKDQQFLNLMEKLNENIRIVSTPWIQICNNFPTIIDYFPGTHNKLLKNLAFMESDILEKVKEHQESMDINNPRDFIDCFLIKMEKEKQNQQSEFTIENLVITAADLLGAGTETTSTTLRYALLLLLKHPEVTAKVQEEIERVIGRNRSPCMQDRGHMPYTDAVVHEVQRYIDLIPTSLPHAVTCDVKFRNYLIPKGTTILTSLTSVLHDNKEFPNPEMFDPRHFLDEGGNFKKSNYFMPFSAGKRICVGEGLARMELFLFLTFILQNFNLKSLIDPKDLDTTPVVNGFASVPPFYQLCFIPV

[7] = Toxicity in Sprague-Dawley rat model of DEN-induced liver fibrosis assessed as drug tolerance at 3 to 10 mg/kg, po qd treated for 4 weeks; assay type: organism-based; conditions: in vivo, 672 h, dose 3-10 mg/kg
[8] = Intrinsic clearance in rat liver microsomes; assay type: ADME, Microsome; conditions: read-out: CLH
[9] = Protein binding in rat plasma; assay type: ADME, cell-free; conditions: read-out: PPB (converted)
[10] = Intrinsic clearance in dog liver microsomes; assay type: ADME, Canis lupus familiaris, Microsome; conditions: read-out: CLH
Cytochrome P450 2C8 = target: T1, Cytochrome P450 2C8 (Homo sapiens, UniProt P10632); assay: Inhibition of CYP2C8 (unknown origin); assay type: ADME
T1 sequence (P10632 whole entry): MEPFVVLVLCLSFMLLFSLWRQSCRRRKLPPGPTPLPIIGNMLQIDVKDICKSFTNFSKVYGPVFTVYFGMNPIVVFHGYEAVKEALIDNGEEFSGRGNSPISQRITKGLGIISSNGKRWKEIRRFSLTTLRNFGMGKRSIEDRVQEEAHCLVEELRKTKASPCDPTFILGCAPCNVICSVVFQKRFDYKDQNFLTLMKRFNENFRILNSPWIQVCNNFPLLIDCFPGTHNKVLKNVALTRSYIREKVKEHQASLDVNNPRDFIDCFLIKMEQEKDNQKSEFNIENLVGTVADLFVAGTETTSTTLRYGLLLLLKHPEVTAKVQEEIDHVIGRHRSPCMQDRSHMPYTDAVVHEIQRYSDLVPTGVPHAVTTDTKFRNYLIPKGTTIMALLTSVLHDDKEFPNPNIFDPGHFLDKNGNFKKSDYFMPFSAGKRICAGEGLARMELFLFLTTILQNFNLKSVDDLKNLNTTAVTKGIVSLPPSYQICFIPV

in vivo [11] = conditions: Sprague-Dawley, rat, liver, po, 3 mg/kg; remark: listed apart in the source
Description: Drug concentration in liver of Sprague-Dawley rat at 3 mg/kg, po measured after 1 hr by LC-MS/MS analysis

[12] = Stability of compound assessed as remaining parent compound by measuring retention time; assay type: physicochemical
[13] = Half life in Sprague-Dawley rat at 1 mg/kg, iv measured for 0.25 to 24 hrs by LC-MS/MS analysis; assay type: ADME, organism-based; conditions: in vivo, time 0.25-24 hrs
Cytochrome P450 3A4 = Cytochrome P450 3A4 (Homo sapiens, UniProt P08684); assay: Inhibition of CYP3A4 (unknown origin) using midazolam as substrate; assay type: ADME
Sequence of Cytochrome P450 3A4 (P08684 whole entry): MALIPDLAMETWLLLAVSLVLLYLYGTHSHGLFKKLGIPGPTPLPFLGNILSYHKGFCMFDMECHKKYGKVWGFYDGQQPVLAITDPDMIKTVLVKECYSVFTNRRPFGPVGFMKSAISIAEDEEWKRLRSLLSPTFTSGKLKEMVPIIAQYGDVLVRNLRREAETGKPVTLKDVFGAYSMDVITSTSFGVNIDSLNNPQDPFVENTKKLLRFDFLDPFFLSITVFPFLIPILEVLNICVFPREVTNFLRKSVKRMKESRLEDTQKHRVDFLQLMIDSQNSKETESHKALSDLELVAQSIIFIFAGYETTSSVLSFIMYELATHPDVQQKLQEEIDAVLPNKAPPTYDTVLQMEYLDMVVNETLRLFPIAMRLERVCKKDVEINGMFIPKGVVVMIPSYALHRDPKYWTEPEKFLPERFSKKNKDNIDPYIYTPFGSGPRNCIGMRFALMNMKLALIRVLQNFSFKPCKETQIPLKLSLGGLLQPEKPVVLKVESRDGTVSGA

[14] = Stability of compound assessed as (1S,3s)-3-(6-carbamoyl-1-((R)-2-(2-methoxyphenyl)-2-((tetrahydro-2H-pyran-4-yl)oxy)ethyl)-5-methyl-2,4-dioxo-1,4-dihydrothieno[2,3-d]pyrimidin-3(2H)-y l)-1-methylcyclobutane-1-carboxylic acid metabolite formation by measuring retention time; assay type: ADME
[15] = Tmax in Sprague-Dawley rat at 3 mg/kg, po measured for 0.25 to 24 hrs by LC-MS/MS analysis; assay type: ADME, organism-based; conditions: in vivo, time 0.25-24 hrs
[16] = target: Voltage-gated inwardly rectifying potassium channel KCNH2 (Homo sapiens, UniProt Q12809); assay: Inhibition of hERG; assay type: toxicity
Sequence of Voltage-gated inwardly rectifying potassium channel KCNH2 (Q12809 whole entry): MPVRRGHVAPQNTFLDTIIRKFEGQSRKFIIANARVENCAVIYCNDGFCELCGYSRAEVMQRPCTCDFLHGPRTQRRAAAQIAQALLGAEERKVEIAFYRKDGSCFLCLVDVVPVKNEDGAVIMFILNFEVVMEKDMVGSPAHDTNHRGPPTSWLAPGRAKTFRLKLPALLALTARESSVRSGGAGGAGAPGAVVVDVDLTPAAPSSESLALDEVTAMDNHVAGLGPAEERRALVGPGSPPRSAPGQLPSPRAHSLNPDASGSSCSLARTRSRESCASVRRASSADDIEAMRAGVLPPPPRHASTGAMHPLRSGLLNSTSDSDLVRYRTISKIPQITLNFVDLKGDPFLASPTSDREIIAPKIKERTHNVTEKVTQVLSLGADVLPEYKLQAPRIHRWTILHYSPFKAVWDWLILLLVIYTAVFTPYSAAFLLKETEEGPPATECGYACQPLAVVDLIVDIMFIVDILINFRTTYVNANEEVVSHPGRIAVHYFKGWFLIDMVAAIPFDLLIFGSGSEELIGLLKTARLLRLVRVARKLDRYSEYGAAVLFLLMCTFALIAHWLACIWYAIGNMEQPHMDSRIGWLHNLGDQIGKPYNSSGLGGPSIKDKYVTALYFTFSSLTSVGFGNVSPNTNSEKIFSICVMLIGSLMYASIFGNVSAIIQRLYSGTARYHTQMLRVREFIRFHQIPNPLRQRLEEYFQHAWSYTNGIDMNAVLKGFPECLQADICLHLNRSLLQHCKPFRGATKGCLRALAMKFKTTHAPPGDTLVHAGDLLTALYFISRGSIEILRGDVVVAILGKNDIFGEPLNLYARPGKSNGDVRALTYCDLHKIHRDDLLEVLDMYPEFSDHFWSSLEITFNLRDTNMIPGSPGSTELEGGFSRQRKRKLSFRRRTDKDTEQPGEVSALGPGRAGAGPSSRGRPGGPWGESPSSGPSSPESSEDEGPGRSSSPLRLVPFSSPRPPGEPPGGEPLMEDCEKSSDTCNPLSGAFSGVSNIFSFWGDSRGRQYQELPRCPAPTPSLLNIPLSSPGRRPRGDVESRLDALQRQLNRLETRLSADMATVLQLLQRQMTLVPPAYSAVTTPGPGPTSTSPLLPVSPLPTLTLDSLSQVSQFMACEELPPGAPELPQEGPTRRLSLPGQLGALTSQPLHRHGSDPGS

Cytochrome P450 2B6 = target: T2, Cytochrome P450 2B6 (Homo sapiens, UniProt P20813); assay: Inhibition of CYP2B6 (unknown origin); assay type: ADME
T2 sequence (P20813 whole entry): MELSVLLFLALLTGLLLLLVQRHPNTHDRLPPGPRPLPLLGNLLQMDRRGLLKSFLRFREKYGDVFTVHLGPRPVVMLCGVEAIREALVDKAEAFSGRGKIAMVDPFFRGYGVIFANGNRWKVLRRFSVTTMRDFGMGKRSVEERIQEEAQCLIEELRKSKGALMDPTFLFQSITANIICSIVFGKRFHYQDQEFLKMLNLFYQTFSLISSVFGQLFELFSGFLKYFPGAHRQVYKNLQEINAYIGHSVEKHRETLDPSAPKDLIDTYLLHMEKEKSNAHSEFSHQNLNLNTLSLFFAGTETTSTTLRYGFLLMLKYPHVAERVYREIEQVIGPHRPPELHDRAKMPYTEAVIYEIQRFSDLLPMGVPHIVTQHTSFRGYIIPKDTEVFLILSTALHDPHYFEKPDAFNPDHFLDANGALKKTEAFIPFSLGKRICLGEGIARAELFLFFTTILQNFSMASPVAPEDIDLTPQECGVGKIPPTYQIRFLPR

[17] = Biodistribution in 12 hr-fasted male wild-type Sprague-Dawley rat assessed as increase in ratio of drug concentration in kidney/plasma at 3 mg/kg, po measured after 4 hrs by LC-MS/MS analysis; assay type: ADME, organism-based; conditions: in vivo
[18] = Toxicity in Sprague-Dawley rat model of DEN-induced liver fibrosis assessed as body weight loss at 3 to 10 mg/kg, po qd treated for 4 weeks; assay type: organism-based; conditions: in vivo, 672 h, dose 3-10 mg/kg
[19] = Biodistribution in 12 hr-fasted male wild-type Sprague-Dawley rat assessed as increase in ratio of drug concentration in liver/plasma at 3 mg/kg, po measured for 0.25 to 4 hrs by LC-MS/MS analysis; assay type: ADME, organism-based; conditions: in vivo, time 0.25-4 hrs
[20] = Biodistribution in liver of 12 hr-fasted male wild-type Sprague-Dawley rat at 3 mg/kg, po measured after 4 hrs by LC-MS/MS analysis; assay type: ADME, organism-based; conditions: in vivo
[21] = Protein binding in human plasma; assay type: ADME, cell-free; conditions: read-out: PPB (converted)
in vivo [22] = conditions: Sprague-Dawley, rat, plasma, po, 3 mg/kg; remark: listed apart in the source
Description: Drug concentration in plasma of Sprague-Dawley rat at 3 mg/kg, po measured after 0.25 hrs by LC-MS/MS analysis

[23] = Clearance in Sprague-Dawley rat at 1 mg/kg, iv measured for 0.25 to 24 hrs by LC-MS/MS analysis; assay type: ADME, organism-based; conditions: in vivo, time 0.25-24 hrs

COc1ccccc1[C@H](Cn1c(=O)n([C@H]2C[C@@](C)(C(=O)O)C2)c(=O)c2c(C)c(-c3ncco3)sc21)OC1CCOCC1
concentration at 4 h (in vivo [1]): 4.83 µg/mL
fraction unbound [2]: 0.054
IC50 (Cytochrome P450 2C9): > 30 µM
IC50 (Acetyl-CoA carboxylase 1): 0.00073 µM
Retention_time [3]: 11.01 min
concentration at 1 h (in vivo [4]): 0.0568 µg/mL
IC50 [5]: 0.507 µM
CLint scaled [6]: < 0.78 L/h/kg
IC50 (Cytochrome P450 2C19): > 30 µM
Activity [7]: Non-toxic
CLint scaled [8]: < 1.04 L/h/kg
fraction unbound [9]: 0.029
CLint scaled [10]: < 0.828 L/h/kg
IC50 (Cytochrome P450 2C8): > 30 µM
concentration at 1 h (in vivo [11]): 2.94 µg/mL
Retention_time [12]: 10.61 min
half-life [13]: 30 min
IC50 (Cytochrome P450 3A4): > 30 µM
Retention_time [14]: 7.64 min
Tmax [15]: 24 min
IC50 [16]: > 30 µM
IC50 (Cytochrome P450 2B6): > 30 µM
Drug uptake [17]: Not_active
Activity [18]: Non-toxic
Drug uptake [19]: Active
Drug uptake [20]: Active
fraction unbound [21]: 0.037
concentration at 0.25 h (in vivo [22]): 0.0137 µg/mL
clearance [23]: 3.8 L/h/kg
